# Assay results as given in patent US20060292076A1, “Antimicrobial mediated ozone generation” (priority 2002, published 2006).
# “Also recorded” adds a separate entry of the source.
# What was measured:
# [1] = Production of hydrogen peroxide by immunoglobulins and proteins under UV irradiation (Amplex Red assay); format: biochemical; settings: for ability of non-immunoglobulin proteins to reduce ^1O2 / generate H2O2: irradiation in PBS
# Description: All assays were carried out in PBS (10 mM phosphate/160 mM sodium chloride, pH 7.4). Commercial protein solution samples were dialyzed into PBS as necessary. Amplex Red hydrogen peroxide assay kits (A-12212) were obtained from Molecular Probes.
# Antibody/Protein Irradiation. Unless otherwise stated, the assay solution (100 μl, 6.7 μM protein in PBS, pH 7.4) was added to a glass vial, sealed with a screw-cap, and irradiated with either UV (312 nm, […] Fischer-Biotech transilluminator) or visible light.
# Quantitative Assay for Hydrogen Peroxide. An aliquot (20 μl) from the protein solution was removed and added into a well of a 96-well microtiter plate (Costar) containing reaction buffer (80 μL). Working solution (100 μl/400 μM Amplex Red reagent ½ units/ml horseradish peroxidase) was then added, and the plate was incubated in the dark for 30 min. The fluorescence of the well components was then measured using a CytoFluor Multi well Plate Reader (Series 4000, PerSeptive Biosystems, Framingham, Mass.; Ex/Em: 530/580 nm). The hydrogen peroxide concentration was determined using a standard curve. All experiments were run in duplicate, and the rate is quoted as the mean of at least two measurements.
# E. coli = assay: Bactericidal assay, E. coli (strain not singled out or both serotypes); format: cell-based
# Description: (§1) In a typical experiment, a culture of E. coli (in log phase growth, OD600=0.2-0.3) was repeatedly pelleted (3×3,500 rpm) and resuspended in PBS (pH 7.4). The PBS suspended cells were then added to glass vials and cooled to 4° C. Hematoporphyrin IX (40 μM) and antibody (20 μM) were added and the vials were either placed on a light box (visible light, 2.8 mW cm^−2) or in the dark at 4° C. and incubated for 1 h. Viability was determined by recovery of colony forming units (CFUs) on agar plates. Each experiment was performed at least in duplicate.
# as §1, with “washed in PBS by pelleting” for “pelleted”, “rpm) the cells” for “rpm)”, “resuspending them” for “resuspended”
# [2] = H2O2 formation with hematoporphyrin IX sensitization and visible light (sensitization and quenching assays); format: biochemical; settings: D2O or NaN3 (40 mM)
# Description: Sensitization and Quenching Assays. A solution of 31127 (100 μl of horse IgG, 6.7 μM) in PBS (pH 7.4, 4% dimethylformamide) and hematoporphyrin IX (40 μM) was placed in proximity to a strip light. Hydrogen peroxide concentration was determined as described herein. […]
# Assay for H2O2 production as a function of the efficiency of ^1O2 formation via ^3O2 sensitization with hematoporphyrin IX: The assay is a modification of a procedure developed by H. Sakai and co-workers, Proc. SPE-Int. Soc. Opt. Eng., 2371, 264 (1995). In brief, the horse poly-IgG (1 mg/mL) in PBS (50 mM, pH 7.4) and hematoporphyrin IX (40 μM) is irradiated with white light from a transilluminator. Aliquots are removed (50 μL) and the concentration of H2O2 and 3-aminophthalic acid measured simultaneously. H2O2 concentration was measured by the amplex red assay (Zhou et al., Anal. Biochem., 253, 162 (1997)). 3-Aminophthalic acid concentration was measured by reversed-phase HPLC on a Hitachi D4000 series machine with an Adsorbosphere-C18 column, a UV detector at 254 nm, and a mobile phase of acetonitrile/water (0.1% TFA) of 18:82 at 1 mL/min (retention time of luminol=7.4 min and 3-aminophthalic acid 3.5 min). The concentrations of luminol and 3-aminophthalic acid were determined by comparison of peak height and area to control samples. […]
# [3] = Consumption of hydrogen peroxide by catalase (peroxide stick test); format: biochemical; settings: 1 min after addition of catalase
# Description: Consumption of Hydroen Peroxide by Catalase. A solution of EP2-19G12 (100 μl of mouse IgG, 20 μM in PBS, pH 7.4) was irradiated with UV light for 30 min, after which time the concentration of hydrogen peroxide was determined by stick test (EM Quant Peroxide Test Sticks) to be 2 mg/liter.
molecule,measurement,setting,value
chick ovalbumin: chick-egg ovalbumin,ability of non-immunoglobulin proteins to reduce ^1O2 / generate H2O2,[1],one of the most efficient proteins at reducing
O=C(O)CN(CCN(CC(=O)O)CC(=O)O)CC(=O)O [EDTA],effect of presence of EDTA on the survival of bacteria,E. coli; 2 mM,no effect
CC1=C(CCC(=O)O)c2cc3[nH]c(cc4nc(cc5[nH]c(cc1n2)c(C)c5C(C)O)C(C)=C4C(C)O)c(C)c3CCC(=O)O (stereo not shown) [hematoporphyrin IX],bactericidal activity,"E. coli; HPIX 40 μM, white light 1 h, 4 °C",negligible bactericidal activity
"[2H]O[2H] [Clone D2O, D2O]",rate of formation of H2O2 by horse IgG with HP (40 μM) in visible light in the presence of additive,[2],increased
"superoxide dismutase: enzyme, Sigma",ability of non-immunoglobulin proteins to reduce ^1O2 / generate H2O2,[1],the same as irradiation of PBS alone; also recorded: do not reduce; also recorded: does not reside
[N-]=[N+]=[N-].[Na+] [NaN3],rate of formation of H2O2 by horse IgG with HP (40 μM) in visible light in the presence of additive,[2],reduced
"N[C@@H](Cc1c[nH]c2ccccc12)C(=O)O [Trp, tryptophan]",H2O2 production during near-UV irradiation,"[1]; tryptophan 20 μM, FIG. 11A",ca. 0.5 mole equivalents
"β-galactosidase: non-immunoglobulin protein, Sigma",H2O2 generated by photo-production,"[1]; from its 39 Trp residues, FIG. 8A",5.9 mol eq.
"catalase: enzyme that converts H2O2 to water and molecular oxygen (protein, UniProt P00432 2-527, looked up) Catalase: ADNRDPASDQMKHWKEQRAAQKPDVLTTGGGNPVGDKLNSLTVGPRGPLLVQDVVFTDEMAHFDRERIPERVVHAKGAGAFGYFEVTHDITRYSKAKVFEHIGKRTPIAVRFSTVAGESGSADTVRDPRGFAVKFYTEDGNWDLVGNNTPIFFIRDALLFPSFIHSQKRNPQTHLKDPDMVWDFWSLRPESLHQVSFLFSDRGIPDGHRHMNGYGSHTFKLVNANGEAVYCKFHYKTDQGIKNLSVEDAARLAHEDPDYGLRDLFNAIATGNYPSWTLYIQVMTFSEAEIFPFNPFDLTKVWPHGDYPLIPVGKLVLNRNPVNYFAEVEQLAFDPSNMPPGIEPSPDKMLQGRLFAYPDTHRHRLGPNYLQIPVNCPYRARVANYQRDGPMCMMDNQGGAPNYYPNSFSAPEHQPSALEHRTHFSGDVQRFNSANDDNVTQVRTFYLKVLNEEQRKRLCENIAGHLKDAQLFIQKKAVKNFSDVHPEYGSRIQALLDKYNEEKPKNAVHTYVQHGSHLSAREKANL",extent of protection against antigen-specific antibodies,E. coli; catalase 13 mU/mL,varied over a wide range
same,protection against the bactericidal activity of non-specific antibodies,E. coli; catalase 13 mU/mL,complete protection; also recorded: completely attenuated
same,concentration of H2O2 after catalase,[3],0 mg/L
"RNase A: non-immunoglobulin protein, Amersham Pharmacia (protein, UniProt P61823 27-150, looked up) Ribonuclease pancreatic: KETAAAKFERQHMDSSTSAASSSNYCNQMMKSRNLTKDRCKPVNTFVHESLADVQAVCSQKNVACKNGQTNCYQSYSTMSITDCRETGSSKYPNCAYKTTQANKHIIVACEGNPYVPVHFDASV",ability of non-immunoglobulin proteins to reduce ^1O2 / generate H2O2,[1],do not reduce
same,ability of non-immunoglobulin proteins to reduce ^1O2 / generate H2O2,[1]; listed as RNaseA,does not reside
